Assay results: patent US20250186469A1, “THERAPEUTIC AGENT FOR OVARIAN CLEAR CELL CARCINOMA” (JSR CORPORATION, priority 2022, published 2025)

Assays:
[1] = system: ovarian clear cell carcinoma organoid; test: Sensitivity test of ovarian clear cell carcinoma organoid (cell viability by ATP activity); type: cell-based, human; conditions: exposed for 3 days at 0.0001 to 10 μM, FIGS. 13, 14, 17
Method: Based on the above-described results of HTDS, the test focused on the proteasome inhibitors that were found with multiple hits among the 9 hit compounds. A proteasome inhibitor (bortezomib, carfilzomib, and ixazomib), a microtubule inhibitor (paclitaxel), and a platinum formulation (cisplatin and carboplatin) were prepared at each of final concentrations of 0.0001 μM, 0.001 µM, 0.01 μM, 0.1 μM, 1 μM, and 10 μM, the ovarian clear cell carcinoma organoid was exposed to each of the concentrations for 3 days, and the cell viability was measured by measuring the ATP activity.
FIGS. 13 and 14 show graphic views of the results of the measured cell viabilities.
For the CDK 1, 2, 5, and 9 inhibitor (dinaciclib) that was hit in the 9 compounds that were hit more in HTDS, the cell viability was measured by measuring an ATP activity in the same manner as in Experimental Example 8.

[2] = system: ovarian clear cell carcinoma organoid CCC19-042; test: Drug sensitivity test for immunodeficient mouse transplanted with ovarian clear cell carcinoma organoid; type: in vivo; conditions: 1 mg/kg intraperitoneally twice a week from the 7th day after transplantation, versus DMSO vehicle; FIG. 15C
Method: The ovarian clear cell carcinoma organoid CCC19-042 was cultured until it reached a diameter of approximately 50 to 100 μm. The organoid was recovered in a 50 mL tube after removing the culture medium from the plate and then suspending the organoid in a Cell Recovery Solution (Corning, 354235). The solution including the recovered organoid was placed on ice and the Matrigel was depolymerized. After the completion of the reaction, the organoid was washed with a culture medium and re-suspended in the Matrigel so that 1×10^6 cells were present in 100 μL.
The organoid corresponding to 1×10^6 cells was transplanted subcutaneously (left shoulder) in an immunodeficient mouse, and the tumor forming ability was evaluated on the 7th day after the transplantation. In addition, a thinly sliced slide was created from an FFPE section of the tumor and subjected to HE staining and HNF1β immunostaining.
With regard to the immunodeficient mouse transplanted with the ovarian clear cell carcinoma organoid shown in Experimental Example 9, administration, measurement of a weekly body weight, and calculation of a tumor volume were performed from the 7th day after transplantation. […]
The tumor volume was calculated by the following expression.

[3] = system: ovarian cancer organoid; test: Sensitivity test of ovarian cancer organoid to PARP inhibitor (cell viability by ATP activity); type: cell-based, human; conditions: exposed for 3 days at 0.0001 to 10 μM; each cell line; FIG. 7
Method: A sensitivity test of the ovarian cancer organoid to olaparib was performed. Olaparib which is a kind of PARP inhibitor was prepared at a final concentration of each of 0.0001 μM, 0.001 μM, 0.01 μM, 0.1 μM, 1 μM, and 10 μM, and the ovarian cancer organoid was exposed to olaparib for 3 days at each concentration, and the cell viability was measured by measuring the ATP activity.
The vertical axis indicates the cell viability as a ratio to the control, and the horizontal axis indicates the final concentration (μM) of olaparib.

Structure (SMILES) | cell viability [1] | tumor volume [2] | cell viability (ratio to the control) [3]
CC(C)C[C@H](NC(=O)[C@H](Cc1ccccc1)NC(=O)c1cnccn1)B(O)O [bortezomib] | significant decrease in cell viability depending on the concentration | decrease in tumor volume | 
CC(C)C[C@H](NC(=O)[C@H](CCc1ccccc1)NC(=O)CN1CCOCC1)C(=O)N[C@@H](Cc1ccccc1)C(=O)N[C@@H](CC(C)C)C(=O)[C@@]1(C)CO1 [carfilzomib] | significant decrease in cell viability depending on the concentration |  | 
CC(C)C[C@H](NC(=O)CNC(=O)c1cc(Cl)ccc1Cl)B(O)O [ixazomib] | significant decrease in cell viability depending on the concentration |  | 
O=C(c1cc(Cc2n[nH]c(=O)c3ccccc23)ccc1F)N1CCN(C(=O)C2CC2)CC1 [olaparib] |  |  | reduced depending on the concentration
CC(=O)O[C@H]1C(=O)[C@@]2(C)[C@H]([C@H](OC(=O)c3ccccc3)[C@]3(O)C[C@H](OC(=O)[C@H](O)[C@@H](NC(=O)c4ccccc4)c4ccccc4)C(C)=C1C3(C)C)[C@]1(OC(C)=O)CO[C@@H]1C[C@@H]2O [paclitaxel] | significant decrease in cell viability depending on the concentration |  | 
